Results: patent US9422321B2, “Pyrimidine nucleoside derivatives, synthesis methods and uses thereof for preparing anti-tumor and anti-virus medicaments” (High & New Technology Research Center, Henan Academy of …, priority 2010, dated 2016)

Legend:
[1] = MTT test of cytotoxicity on HepG2.2.15 cells; type: cell-based; conditions: human, read-out: CC50 (μM) (HepG2. 2. 15)
Protocol: (§1) A tube of frozen HepG2.2.15 cells taken from a liquid nitrogen tank was quickly placed into a water bath at 42° C. and shaken to thaw. DMEM complete medium (fetal bovine serum 10%, G418 380 μg/mL, Penicillin 100 U/ml, Streptomycin 100 U/ml) was used for cell culturing at conditions of 37° C. and 5% CO2. The number of cell passage in normal growing cells was once per 2-3 days.
Cytotoxicity of the compound on HepG2.2.15 cells was tested with the MTT colorimetric assay established by Mosmann. After continuous incubation for 72 h, 10 μL MTT was added to each well. Four hours later, the supernatant was discarded and 200 μL DMSO was added to each well. The OD value in each well was read using a microplate reader (measurement wavelength 490 nm, reference wavelength 630 nm). The result was recorded and the percentage inhibition of HepG2.2.15 cells by each compound was calculated:
The half toxic concentration (TC50) of the medicament on cells was calculated according to the percentage inhibition of the cell by the medicament.

[2] = MTS test of effects of the compound on cell survival; type: cell-based; conditions: human, 293T cells
Protocol: Then, 20 μL freshly prepared mixture of MTS/PMS was added to each well and after 4 h incubation in the incubator at 37° C. with 5% CO2, the color was developed. The light absorption (OD) of each well at wavelengths 490 nm and 650 nm (background) was detected on an enzyme linked immuno analyzer, and the survival rate of cells was calculated.

VSVG/HIV-luc (NL4-3) = test: microbe, parasite or virus in culture; type: cell-based, HIV-1; conditions: Human immunodeficiency virus 1, NL43, HEK-293T; for EC50: 48 h, read-out: EC50 (μM) VSVG/HIV-luc (NL4-3); for inhibition at 10 µM: read-out: Inhibitory activity at 10 μM
HBsAg = test: In vitro inhibition of HBV: HBsAg in HepG2.2.15 cells by ELISA; type: cell-based; conditions: Hepatitis B virus, HepG2.2.15, read-out: IC50 (μM) (HBsAg)
Protocol: as §1
(§2) The effect of a compound on HBV surface antigen s and antigen e in the cell culture was detected using a screening concentration lower than the half toxic concentration of the compound. HepG2.2.15 cells in logarithmic growth phase were selected and digested with trypsin into single cell suspension, and were seeded to a 24-well plate at a concentration of 2×10^4/mL, 1 mL per well. Media of different medicament concentrations were added, three wells for each concentration, and cells added with complete medium were set as normal control. Cell supernatants and cells at day 3, day 6 and day 9 were collected and kept under −20° C. The intracellular and extracellular expressions of e antigen and surface antigen at day 3, day 6 and day 9 were determined by ELISA.
(§3) 2.4 Effect of the Compound on HBeAg and HBsAg in HepG2.2.15 Cell Supernatant Detected by ELISA
(§4) The instructions of the kit were followed;
(§5) Measurement: OD value of each well was read from microplate reader using dual wavelength 450/630 nm.
(§6) Result determination: The Cutoff value was first calculated according to equation: COV=average OD of negative control×2.1. Then, if a sample had OD≧COV, the result was determined as positive, or if a sample had OD≦COV, the result was determined as negative.

HBeAg = test: In vitro inhibition of HBV: HBeAg in HepG2.2.15 cells by ELISA; type: cell-based; conditions: Hepatitis B virus, HepG2.2.15, read-out: IC50 (μM) (HBeAg)
Protocol: as §1, §2, §3, §4, §5, §6

SMILES	CC50 at 72 h [1]	CC50 at 44 h [2]	EC50 (VSVG/HIV-luc (NL4-3))	IC50 (HBsAg)	inhibition at 10 µM (VSVG/HIV-luc (NL4-3))	IC50 (HBeAg)
[N-]=[N+]=N[C@]1(CO)O[C@@H](n2ccc(NCc3ccco3)nc2=O)C(F)C1O (stereo partly drawn) [Compound 5-09]	≥ 25 µM	≥ 25 µM	0.7 ± 0.1 µM	0.19 µM	–	–
[N-]=[N+]=N[C@]1(CO)O[C@@H](n2ccc(NC3CCCCC3)nc2=O)C(F)C1O (stereo partly drawn) [Compound 5-10]	654 µM	–	–	< 0.1 µM	1.9 ± 2.2%	–
CCNc1ccn([C@@H]2O[C@@](CO)(N=[N+]=[N-])C(O)C2F)c(=O)n1 (stereo partly drawn) [Compound 5-01]	–	–	–	–	21.6 ± 1.3%	–
[N-]=[N+]=N[C@]1(CO)O[C@@H](n2ccc(NN3CCOCC3)nc2=O)C(F)C1O (stereo partly drawn) [Compound 5-22]	–	–	–	–	14.2 ± 5.1%	–
CN(C)c1ccn([C@@H]2O[C@@](CO)(N=[N+]=[N-])C(O)C2F)c(=O)n1 (stereo partly drawn) [Compound 5-21]	> 250 µM	≥ 25 µM	13 ± 6 µM	–	–	15.5 µM
CON(C)c1ccn([C@@H]2O[C@@](CO)(N=[N+]=[N-])C(O)C2F)c(=O)n1 (stereo partly drawn) [Compound 5-06]	–	–	–	–	32.2 ± 10.5%	–
COC(=O)[C@H](CCSC)Nc1ccn([C@@H]2O[C@@](CO)(N=[N+]=[N-])C(O)C2F)c(=O)n1 (stereo partly drawn) [Compound 8g]	> 250 µM	≥ 25 µM	8.1 ± 5.5 µM	19.6 µM	–	–
COC(=O)[C@@H]1CCCN1c1ccn([C@@H]2O[C@@](CO)(N=[N+]=[N-])C(O)C2F)c(=O)n1 (stereo partly drawn) [Compound 7L]	596 µM	–	–	0.02 µM	5.1 ± 4.6%	–
[N-]=[N+]=N[C@]1(CO)O[C@@H](n2ccc(NCCc3c[nH]c4ccccc34)nc2=O)C(F)C1O (stereo partly drawn) [Compound 5-20]	> 250 µM	≥ 25 µM	5.8 ± 2.6 µM	–	–	–
[N-]=[N+]=N[C@]1(CO)O[C@@H](n2ccc(NCCCO)nc2=O)C(F)C1O (stereo partly drawn) [Compound 5-14]	668 µM	–	–	2.46 µM	6.3 ± 3.2%	–
[N-]=[N+]=N[C@]1(CO)O[C@@H](n2ccc(NCCCN)nc2=O)C(F)C1O (stereo partly drawn) [Compound 5-32]	–	–	–	–	0.9 ± 0.8%	–
[N-]=[N+]=N[C@]1(CO)O[C@@H](n2ccc(NNC(N)=O)nc2=O)C(F)C1O (stereo partly drawn) [Compound 5-30]	–	–	–	–	38.6 ± 5.7%	–
[N-]=[N+]=N[C@]1(CO)O[C@@H](n2ccc(NCc3ccccc3)nc2=O)C(F)C1O (stereo partly drawn) [Compound 5-16]	–	–	–	–	31.3 ± 4%	–
CONc1ccn([C@@H]2O[C@@](CO)(N=[N+]=[N-])C(O)C2F)c(=O)n1 (stereo partly drawn) [Compound 5-07]	418 µM	–	–	< 0.01 µM	29.4 ± 5.1%	> 1 µM
[N-]=[N+]=N[C@]1(CO)O[C@@H](n2ccc(N3CCOCC3)nc2=O)C(F)C1O (stereo partly drawn) [Compound 5-12]	700 µM	–	–	< 0.1 µM	3 ± 6.9%	> 1 µM
[N-]=[N+]=N[C@]1(CO)O[C@@H](n2cc(C#CCCO)c(=O)[nH]c2=O)C(F)C1O (stereo partly drawn) [Compound 14]	–	–	–	–	10 ± 5.9%	–
CCN(CC)c1ccn([C@@H]2O[C@@](CO)(N=[N+]=[N-])C(O)C2F)c(=O)n1 (stereo partly drawn) [Compound 5-04]	–	–	–	–	8.6 ± 7.5%	–
CC(Nc1ccn([C@@H]2O[C@@](CO)(N=[N+]=[N-])C(O)C2F)c(=O)n1)C(=O)O (stereo partly drawn) [Compound 8m]	–	≥ 25 µM	0.5 ± 0.3 µM	–	–	–
[N-]=[N+]=N[C@]1(CO)O[C@@H](n2ccc(NCC(O)CN)nc2=O)C(F)C1O (stereo partly drawn) [Compound 5-33]	–	–	–	–	14.1 ± 2.2%	–
[N-]=[N+]=N[C@]1(CO)O[C@@H](n2cc(C#CCCO)c(N)nc2=O)C(F)C1O (stereo partly drawn) [Compound 15]	–	–	–	–	27 ± 4.7%	–
[N-]=[N+]=N[C@]1(CO)O[C@@H](n2cc(C(=O)N3CCOCC3)c(=O)[nH]c2=O)C(F)C1O (stereo partly drawn) [Compound 22]	644 µM	–	–	2.14 µM	0%	–
CCONc1ccn([C@@H]2O[C@@](CO)(N=[N+]=[N-])C(O)C2F)c(=O)n1 (stereo partly drawn) [Compound 5-08]	572 µM	–	–	0.12 µM	15.6 ± 1.3%	> 1 µM
